Test results reported in patent publication US9522888B2, “Substituted bicyclic compounds” (BRISTOL-MYERS SQUIBB COMPANY, priority 2014, dated 2016).

target: S1P1 (membranes prepared from S1P1/CHO cells) (Homo sapiens (Human), UniProt P21453); assay: Receptor [35S] GTPγS binding assay (S1P1 GTPγS); type: biochemical; conditions: phosphate examples; read-out: S1P1 GTPγS
Summary of the method: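 Membranes from S1P1-expressing CHO cells (3 μg protein/well) incubated with compound (11-point, 3-fold dilution) and 0.2 nM final [35S]GTPγS, 45 min at room temperature. Assay buffer: 20 mM HEPES pH 7.5, 10 mM MgCl2, 150 mM NaCl, 10 μM GDP, 0.1% fatty-acid-free BSA, 10 μg/ml saponin. Filter-bound radioactivity counted by scintillation; EC50 derived.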

Chain of S1P1 (membranes prepared from S1P1/CHO cells) (P21453 whole entry): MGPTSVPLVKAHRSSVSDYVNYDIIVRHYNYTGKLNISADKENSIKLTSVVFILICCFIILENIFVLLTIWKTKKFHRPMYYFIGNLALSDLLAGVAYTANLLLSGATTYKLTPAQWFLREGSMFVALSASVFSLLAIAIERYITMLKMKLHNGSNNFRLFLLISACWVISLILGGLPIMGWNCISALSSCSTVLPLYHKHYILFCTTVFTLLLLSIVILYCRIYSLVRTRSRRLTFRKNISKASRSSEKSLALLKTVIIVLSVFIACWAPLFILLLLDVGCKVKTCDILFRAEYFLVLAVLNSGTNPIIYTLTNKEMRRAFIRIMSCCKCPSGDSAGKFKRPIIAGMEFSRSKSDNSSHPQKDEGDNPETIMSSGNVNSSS

EC50 [nM]	SMILES
10 to 100	Cc1ccc(COC[C@@H]2CCc3cc([C@H]4CC[C@](N)(COP(=O)(O)O)C4)ccc3C2)cc1 [compound 474]
< 10	N[C@]1(COP(=O)(O)O)CC[C@H](c2ccc3c(c2)CC[C@@H](/C=C/C2CCOCC2)C3)C1 [compound 642]
< 10	CC(C)SCC[C@@H]1CCc2cc([C@H]3CC[C@](N)(COP(=O)(O)O)C3)ccc2C1 [compound 537]
< 10	COc1ccc(OC[C@@H]2CCc3cc([C@H]4CC[C@](N)(COP(=O)(O)O)C4)ccc3C2)cc1OC [compound 491]
10 to 100	COCCC[C@H]1CCc2cc([C@@H]3CC[C@@](N)(COP(=O)(O)O)C3)ccc2C1 [compound 595]
100 to 1000	COc1cccc(OCC[C@@H]2CCc3cc([C@H]4CC[C@](N)(COP(=O)(O)O)C4)ccc3C2)c1 [compound 544]
100 to 1000	CCCCCO[C@H]1CCc2cc([C@H]3CC[C@](N)(COP(=O)(O)O)C3)ccc2C1 [compound 431]
100 to 1000	CCCCOC[C@@H]1CCc2cc([C@H]3CC[C@](N)(COP(=O)(O)O)C3)ccc2C1 [compound 447]
< 10	CC(C)(C)CCSC[C@@H]1CCc2cc([C@H]3CC[C@](N)(COP(=O)(O)O)C3)ccc2C1 [compound 519]
10 to 100	N[C@]1(COP(=O)(O)O)CC[C@H](c2ccc3c(c2)CC[C@@H](CSCCc2ccccc2)C3)C1 [compound 522]
10 to 100	CC(C)CCOCCO[C@H]1CCc2cc([C@H]3CC[C@](N)(COP(=O)(O)O)C3)ccc2C1 [compound 587]
100 to 1000	C=CCOCCC[C@@H]1CCc2cc(C3CCC(N)(COP(=O)(O)O)C3)ccc2C1 (single isomer, unassigned) [compound 601]
< 10	COCCCCCC[C@H]1CCc2cc(C3CCC(N)(COP(=O)(O)O)C3)ccc2C1 (single isomer, unassigned) [compound 597]
10 to 100	CCCC/C=C/[C@@H]1CCc2cc([C@H]3CC[C@](N)(COP(=O)(O)O)C3)ccc2C1 [compound 637]
10 to 100	CC(C)(C)CSC[C@H]1CCc2cc([C@H]3CC[C@](N)(COP(=O)(O)O)C3)ccc2C1 [compound 514]
10 to 100	Cc1cccc(OC[C@@H]2CCc3cc([C@H]4CC[C@](N)(COP(=O)(O)O)C4)ccc3C2)c1 [compound 470]
10 to 100	COc1cccc(OCC[C@H]2CCc3cc([C@H]4CC[C@](N)(COP(=O)(O)O)C4)ccc3C2)c1 [compound 545]
10 to 100	CC(C)c1ccc(OC[C@@H]2CCc3cc([C@H]4CC[C@](N)(COP(=O)(O)O)C4)ccc3C2)cc1 [compound 479]
10 to 100	COc1ccc(CC[C@H]2CCc3cc([C@@H]4CC[C@@](N)(COP(=O)(O)O)C4)ccc3C2)cc1 [compound 594]
10 to 100	C#CCCOCCO[C@H]1CCc2cc([C@@H]3CC[C@@](N)(COP(=O)(O)O)C3)ccc2C1 [compound 586]

target: hS1P1/CHO cells (Homo sapiens (Human), UniProt P21453); assay: hS1P1 ERK phosphorylation (S1P1 pERK); type: cell-based; conditions: phosphate examples
Summary of the method: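 CHO cells expressing human S1P1, serum-starved 2 h, exposed to compound in HBSS/20 mM HEPES for 7 min at 37° C. Lysates assayed for phospho-ERK by SureFire kit; response given as % activation relative to 10 μM S1P.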

Chain of hS1P1/CHO cells (P21453 whole entry): as above

EC50 [nM]	SMILES
< 10	Cc1ccc(COC[C@@H]2CCc3cc([C@H]4CC[C@](N)(COP(=O)(O)O)C4)ccc3C2)cc1 [compound 474]
< 10	N[C@]1(COP(=O)(O)O)CC[C@H](c2ccc3c(c2)CC[C@@H](/C=C/C2CCOCC2)C3)C1 [compound 642]
< 10	CC(C)SCC[C@@H]1CCc2cc([C@H]3CC[C@](N)(COP(=O)(O)O)C3)ccc2C1 [compound 537]
10 to 100	COc1ccc(OC[C@@H]2CCc3cc([C@H]4CC[C@](N)(COP(=O)(O)O)C4)ccc3C2)cc1OC [compound 491]
< 10	COCCC[C@H]1CCc2cc([C@@H]3CC[C@@](N)(COP(=O)(O)O)C3)ccc2C1 [compound 595]
< 10	COc1cccc(OCC[C@@H]2CCc3cc([C@H]4CC[C@](N)(COP(=O)(O)O)C4)ccc3C2)c1 [compound 544]
< 10	CCCCCO[C@H]1CCc2cc([C@H]3CC[C@](N)(COP(=O)(O)O)C3)ccc2C1 [compound 431]
< 10	CCCCOC[C@@H]1CCc2cc([C@H]3CC[C@](N)(COP(=O)(O)O)C3)ccc2C1 [compound 447]
< 10	CC(C)(C)CCSC[C@@H]1CCc2cc([C@H]3CC[C@](N)(COP(=O)(O)O)C3)ccc2C1 [compound 519]
10 to 100	N[C@]1(COP(=O)(O)O)CC[C@H](c2ccc3c(c2)CC[C@@H](CSCCc2ccccc2)C3)C1 [compound 522]
< 10	CC(C)CCOCCO[C@H]1CCc2cc([C@H]3CC[C@](N)(COP(=O)(O)O)C3)ccc2C1 [compound 587]
< 10	C=CCOCCC[C@@H]1CCc2cc(C3CCC(N)(COP(=O)(O)O)C3)ccc2C1 (single isomer, unassigned) [compound 601]
10 to 100	COCCCCCC[C@H]1CCc2cc(C3CCC(N)(COP(=O)(O)O)C3)ccc2C1 (single isomer, unassigned) [compound 597]
10 to 100	CCCC/C=C/[C@@H]1CCc2cc([C@H]3CC[C@](N)(COP(=O)(O)O)C3)ccc2C1 [compound 637]
10 to 100	CC(C)(C)CSC[C@H]1CCc2cc([C@H]3CC[C@](N)(COP(=O)(O)O)C3)ccc2C1 [compound 514]
< 10	Cc1cccc(OC[C@@H]2CCc3cc([C@H]4CC[C@](N)(COP(=O)(O)O)C4)ccc3C2)c1 [compound 470]
< 10	COc1cccc(OCC[C@H]2CCc3cc([C@H]4CC[C@](N)(COP(=O)(O)O)C4)ccc3C2)c1 [compound 545]
10 to 100	CC(C)c1ccc(OC[C@@H]2CCc3cc([C@H]4CC[C@](N)(COP(=O)(O)O)C4)ccc3C2)cc1 [compound 479]
100 to 1000	COc1ccc(CC[C@H]2CCc3cc([C@@H]4CC[C@@](N)(COP(=O)(O)O)C4)ccc3C2)cc1 [compound 594]
< 10	C#CCCOCCO[C@H]1CCc2cc([C@@H]3CC[C@@](N)(COP(=O)(O)O)C3)ccc2C1 [compound 586]

target: human S1P1 (Homo sapiens (Human), UniProt P21453); assay: S1P1 binding assay (33P-S1P radioligand competition, CHO cell membranes); conditions: phosphate examples; read-out: S1P1 Binding
Summary of the method: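 Radioligand is 33P-S1P, competing for membranes from human S1P1-expressing CHO cells. Membranes resuspended in 50 mM HEPES pH 7.5, 100 mM NaCl, 1 mM MgCl2, 2 mM EDTA.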

Chain of human S1P1 (P21453 whole entry): as above

IC50 [nM]	SMILES
< 10	Cc1ccc(COC[C@@H]2CCc3cc([C@H]4CC[C@](N)(COP(=O)(O)O)C4)ccc3C2)cc1 [compound 474]
10 to 100	N[C@]1(COP(=O)(O)O)CC[C@H](c2ccc3c(c2)CC[C@@H](/C=C/C2CCOCC2)C3)C1 [compound 642]
< 10	CC(C)SCC[C@@H]1CCc2cc([C@H]3CC[C@](N)(COP(=O)(O)O)C3)ccc2C1 [compound 537]
< 10	COc1ccc(OC[C@@H]2CCc3cc([C@H]4CC[C@](N)(COP(=O)(O)O)C4)ccc3C2)cc1OC [compound 491]
< 10	COCCC[C@H]1CCc2cc([C@@H]3CC[C@@](N)(COP(=O)(O)O)C3)ccc2C1 [compound 595]
10 to 100	COc1cccc(OCC[C@@H]2CCc3cc([C@H]4CC[C@](N)(COP(=O)(O)O)C4)ccc3C2)c1 [compound 544]
10 to 100	CCCCCO[C@H]1CCc2cc([C@H]3CC[C@](N)(COP(=O)(O)O)C3)ccc2C1 [compound 431]
10 to 100	CCCCOC[C@@H]1CCc2cc([C@H]3CC[C@](N)(COP(=O)(O)O)C3)ccc2C1 [compound 447]
< 10	CC(C)(C)CCSC[C@@H]1CCc2cc([C@H]3CC[C@](N)(COP(=O)(O)O)C3)ccc2C1 [compound 519]
< 10	N[C@]1(COP(=O)(O)O)CC[C@H](c2ccc3c(c2)CC[C@@H](CSCCc2ccccc2)C3)C1 [compound 522]
< 10	CC(C)CCOCCO[C@H]1CCc2cc([C@H]3CC[C@](N)(COP(=O)(O)O)C3)ccc2C1 [compound 587]
< 10	C=CCOCCC[C@@H]1CCc2cc(C3CCC(N)(COP(=O)(O)O)C3)ccc2C1 (single isomer, unassigned) [compound 601]
< 10	COCCCCCC[C@H]1CCc2cc(C3CCC(N)(COP(=O)(O)O)C3)ccc2C1 (single isomer, unassigned) [compound 597]
< 10	CCCC/C=C/[C@@H]1CCc2cc([C@H]3CC[C@](N)(COP(=O)(O)O)C3)ccc2C1 [compound 637]
< 10	CC(C)(C)CSC[C@H]1CCc2cc([C@H]3CC[C@](N)(COP(=O)(O)O)C3)ccc2C1 [compound 514]
100 to 1000	Cc1cccc(OC[C@@H]2CCc3cc([C@H]4CC[C@](N)(COP(=O)(O)O)C4)ccc3C2)c1 [compound 470]
10 to 100	COc1cccc(OCC[C@H]2CCc3cc([C@H]4CC[C@](N)(COP(=O)(O)O)C4)ccc3C2)c1 [compound 545]
100 to 1000	CC(C)c1ccc(OC[C@@H]2CCc3cc([C@H]4CC[C@](N)(COP(=O)(O)O)C4)ccc3C2)cc1 [compound 479]
10 to 100	COc1ccc(CC[C@H]2CCc3cc([C@@H]4CC[C@@](N)(COP(=O)(O)O)C4)ccc3C2)cc1 [compound 594]
< 10	C#CCCOCCO[C@H]1CCc2cc([C@@H]3CC[C@@](N)(COP(=O)(O)O)C3)ccc2C1 [compound 586]

target: S1P3 (membranes prepared from EDG3-Gal5-bla HEK293T cells) (Homo sapiens (Human), UniProt Q99500); assay: Receptor [35S] GTPγS binding assay (S1P3 GTPγS); type: biochemical; conditions: phosphate examples; read-out: S1P3 GTPγS
Summary of the method: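 Membranes (3 μg protein/well) from S1P1/CHO cells or EDG3-Gal5-bla HEK293T cells (S1P3) were incubated 45 min at room temperature with 0.2 nM final [35S]GTPγS in HEPES pH 7.5 buffer with 10 μM GDP, MgCl2 and saponin. Bound label counted after filtration; EC50 from 11-point, 3-fold dilutions.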

Chain of S1P3 (membranes prepared from EDG3-Gal5-bla HEK293T cells) (Q99500 whole entry): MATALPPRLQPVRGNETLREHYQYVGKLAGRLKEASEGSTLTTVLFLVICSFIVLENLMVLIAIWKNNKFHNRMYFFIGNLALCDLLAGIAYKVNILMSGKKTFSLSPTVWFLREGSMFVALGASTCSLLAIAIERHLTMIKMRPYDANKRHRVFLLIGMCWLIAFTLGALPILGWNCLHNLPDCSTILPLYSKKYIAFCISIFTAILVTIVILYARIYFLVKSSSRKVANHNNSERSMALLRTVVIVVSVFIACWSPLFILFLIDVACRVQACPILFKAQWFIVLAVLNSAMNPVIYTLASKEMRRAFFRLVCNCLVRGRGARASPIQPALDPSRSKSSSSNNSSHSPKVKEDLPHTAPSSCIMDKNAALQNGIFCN

EC50 [nM]	SMILES
> 625	Cc1ccc(COC[C@@H]2CCc3cc([C@H]4CC[C@](N)(COP(=O)(O)O)C4)ccc3C2)cc1 [compound 474]
> 625	N[C@]1(COP(=O)(O)O)CC[C@H](c2ccc3c(c2)CC[C@@H](/C=C/C2CCOCC2)C3)C1 [compound 642]
> 625	CC(C)SCC[C@@H]1CCc2cc([C@H]3CC[C@](N)(COP(=O)(O)O)C3)ccc2C1 [compound 537]
> 625	COc1ccc(OC[C@@H]2CCc3cc([C@H]4CC[C@](N)(COP(=O)(O)O)C4)ccc3C2)cc1OC [compound 491]
> 625	COCCC[C@H]1CCc2cc([C@@H]3CC[C@@](N)(COP(=O)(O)O)C3)ccc2C1 [compound 595]
> 625	COc1cccc(OCC[C@@H]2CCc3cc([C@H]4CC[C@](N)(COP(=O)(O)O)C4)ccc3C2)c1 [compound 544]
> 625	CCCCCO[C@H]1CCc2cc([C@H]3CC[C@](N)(COP(=O)(O)O)C3)ccc2C1 [compound 431]
> 625	CCCCOC[C@@H]1CCc2cc([C@H]3CC[C@](N)(COP(=O)(O)O)C3)ccc2C1 [compound 447]
> 625	CC(C)(C)CCSC[C@@H]1CCc2cc([C@H]3CC[C@](N)(COP(=O)(O)O)C3)ccc2C1 [compound 519]
> 625	N[C@]1(COP(=O)(O)O)CC[C@H](c2ccc3c(c2)CC[C@@H](CSCCc2ccccc2)C3)C1 [compound 522]
> 625	CC(C)CCOCCO[C@H]1CCc2cc([C@H]3CC[C@](N)(COP(=O)(O)O)C3)ccc2C1 [compound 587]
> 100	C=CCOCCC[C@@H]1CCc2cc(C3CCC(N)(COP(=O)(O)O)C3)ccc2C1 (single isomer, unassigned) [compound 601]
> 625	COCCCCCC[C@H]1CCc2cc(C3CCC(N)(COP(=O)(O)O)C3)ccc2C1 (single isomer, unassigned) [compound 597]
> 625	CCCC/C=C/[C@@H]1CCc2cc([C@H]3CC[C@](N)(COP(=O)(O)O)C3)ccc2C1 [compound 637]
> 625	CC(C)(C)CSC[C@H]1CCc2cc([C@H]3CC[C@](N)(COP(=O)(O)O)C3)ccc2C1 [compound 514]
> 625	Cc1cccc(OC[C@@H]2CCc3cc([C@H]4CC[C@](N)(COP(=O)(O)O)C4)ccc3C2)c1 [compound 470]
> 625	COc1cccc(OCC[C@H]2CCc3cc([C@H]4CC[C@](N)(COP(=O)(O)O)C4)ccc3C2)c1 [compound 545]
> 625	CC(C)c1ccc(OC[C@@H]2CCc3cc([C@H]4CC[C@](N)(COP(=O)(O)O)C4)ccc3C2)cc1 [compound 479]
> 625	COc1ccc(CC[C@H]2CCc3cc([C@@H]4CC[C@@](N)(COP(=O)(O)O)C4)ccc3C2)cc1 [compound 594]
> 625	C#CCCOCCO[C@H]1CCc2cc([C@@H]3CC[C@@](N)(COP(=O)(O)O)C3)ccc2C1 [compound 586]
